Experimental data as given in PubChem BioAssay (NCI).
Several values for one entry are separate records, joined by “and”; a condition that tells them apart may be missing. Equal entries are not always repeated.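 Method: 48-hour compound exposure of cells in 96-well plates, five concentrations, linear interpolation of endpoints. The concentration for 50% growth inhibition is given as GI50. TGI denotes the concentration required for complete inhibition of growth.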

Tested on: DLD-1 colon
Assay: NCI anticancer screen, dose series, 48 h

Compound | TGI [µM] | GI50 [µM]
O=Cc1cc2c(cc1-c1cc3c(cc1C=O)OCO3)OCO2 | > 100 | –
C/C(=N\NC(N)=O)c1sc(-c2nc(C)c(/C(C)=N/NC(N)=O)s2)nc1C | > 100 | –
O/N=C1\CCCCC1C(NO)c1ccccc1 (stereo not given) | > 100 | –
O=S(=O)(OI(OI(OS(=O)(=O)C(F)(F)F)c1ccccc1)c1ccccc1)C(F)(F)F | > 100 | –
Cc1cc2c(cc1C)[n+](=O)cc(C(=O)C/C(=N/NC(=S)NN)C(=O)Nc1cccc(C(F)(F)F)c1)n2[O-] | > 100 | –
COCOCCC#CCO | > 100 | –
COc1cc(C[P+](c2ccccc2)(c2ccccc2)c2ccccc2)cc(OC)c1OC | > 100 | –
CCCN(CCC)c1c([N+](=O)[O-])cc(C(=O)N(CC)CC)cc1[N+](=O)[O-] | > 100 | –
NC(=S)N/N=C/c1ncccc1O | > 774 | 3.79
COC(=N)c1csc(C2OC(CO)C(O)C2O)n1 (stereo not given) | > 100 | –
CN1Nc2ccccc2CC1=O | > 100 | –
CCOc1ccc(OCC(=O)O)c2c1CCCC2=O | > 100 | –
Nc1c(S(=O)(=O)c2ccc(Cl)cc2)c2nc3ccccc3nc2n2ccnc12 | > 100 | –
CCOc1ccc(NC(=O)CC2SC(=Nc3ccc(C)cc3C)NC2=O)cc1 (stereo not given) | > 100 | –
Oc1oc(C(=C2N=c3ccccc3=N2)c2ccc(Cl)cc2)c(O)c1-c1ccc(Cl)cc1 | > 100 | –
Cc1nc2c(N)ncnc2o1 | > 100 | –
O=c1[nH]c(=O)n(C2CC(O)C(CO)O2)cc1OS(=O)(=O)C(F)(F)F (stereo not given) | > 100 | –
CC[C@@H]1NC(C(=O)OC)Cc2c1[nH]c1ccccc21 (stereo not given in full) | > 100 | –
CC(=O)N/C(=C\c1ccccc1/C=C(\NC(C)=O)c1nc2cc(C)c(C)cc2[nH]1)c1nc2cc(C)c(C)cc2[nH]1 | 56.5 | –

Tested on: DMS 273 small cell lung
Assay: NCI anticancer screen, dose series, 48 h

Compound | TGI [µM] | GI50
O=Cc1cc2c(cc1-c1cc3c(cc1C=O)OCO3)OCO2 | > 100 | –
C/C(=N\NC(N)=O)c1sc(-c2nc(C)c(/C(C)=N/NC(N)=O)s2)nc1C | 49.6 | –
O/N=C1\CCCCC1C(NO)c1ccccc1 (stereo not given) | > 100 | –
O=S(=O)(OI(OI(OS(=O)(=O)C(F)(F)F)c1ccccc1)c1ccccc1)C(F)(F)F | > 100 | –
COc1cc(OC)c(OC)cc1/C=N/NC(=O)N/N=C/c1cc(OC)c(OC)cc1OC | > 100 | –
FC(F)(F)c1ccc2nc(NCc3ccccc3)c(-c3ccccc3)nc2c1 | > 100 | –
Cc1cc2c(cc1C)[n+](=O)cc(C(=O)C/C(=N/NC(=S)NN)C(=O)Nc1cccc(C(F)(F)F)c1)n2[O-] | > 100 | –
COc1cc(C[P+](c2ccccc2)(c2ccccc2)c2ccccc2)cc(OC)c1OC | > 100 | –
CC(C)=CCC1=C(O)c2ccccc2C(=O)C1=O | > 100 | 37.8 µM and 9.15 µM
CCCN(CCC)c1c([N+](=O)[O-])cc(C(=O)N(CC)CC)cc1[N+](=O)[O-] | 43.7 | –
NC(=S)N/N=C/c1ncccc1O | 5.96 | –
COC(=N)c1csc(C2OC(CO)C(O)C2O)n1 (stereo not given) | > 100 | –
CN1Nc2ccccc2CC1=O | > 100 | –
CCOc1ccc(OCC(=O)O)c2c1CCCC2=O | > 100 | –
Nc1c(S(=O)(=O)c2ccc(Cl)cc2)c2nc3ccccc3nc2n2ccnc12 | > 100 | –
CCOc1ccc(NC(=O)CC2SC(=Nc3ccc(C)cc3C)NC2=O)cc1 (stereo not given) | > 100 | –
Oc1oc(C(=C2N=c3ccccc3=N2)c2ccc(Cl)cc2)c(O)c1-c1ccc(Cl)cc1 | 19.1 | –
Cc1nc2c(N)ncnc2o1 | > 100 | –
O=c1[nH]c(=O)n(C2CC(O)C(CO)O2)cc1OS(=O)(=O)C(F)(F)F (stereo not given) | > 100 | –
CC[C@@H]1NC(C(=O)OC)Cc2c1[nH]c1ccccc21 (stereo not given in full) | > 100 | –
CC(=O)N/C(=C\c1ccccc1/C=C(\NC(C)=O)c1nc2cc(C)c(C)cc2[nH]1)c1nc2cc(C)c(C)cc2[nH]1 | 47.6 | –
CCOC(=O)Cc1csc(Nc2ccccc2[N+](=O)[O-])n1 | > 100 | –

Tested on: HOP-18 NSCLC
Assay: NCI anticancer screen, dose series, 48 h

Compound | TGI [µM]
O=Cc1cc2c(cc1-c1cc3c(cc1C=O)OCO3)OCO2 | > 100
C/C(=N\NC(N)=O)c1sc(-c2nc(C)c(/C(C)=N/NC(N)=O)s2)nc1C | > 100
O/N=C1\CCCCC1C(NO)c1ccccc1 (stereo not given) | > 100
COc1cc(OC)c(OC)cc1/C=N/NC(=O)N/N=C/c1cc(OC)c(OC)cc1OC | > 100
FC(F)(F)c1ccc2nc(NCc3ccccc3)c(-c3ccccc3)nc2c1 | > 100
Cc1cc2c(cc1C)[n+](=O)cc(C(=O)C/C(=N/NC(=S)NN)C(=O)Nc1cccc(C(F)(F)F)c1)n2[O-] | > 100
COCOCCC#CCO | > 100
CC(C)=CCC1=C(O)c2ccccc2C(=O)C1=O | > 100
NC(=S)N/N=C/c1ncccc1O | 141
COC(=N)c1csc(C2OC(CO)C(O)C2O)n1 (stereo not given) | > 100
CN1Nc2ccccc2CC1=O | > 100
Nc1c(S(=O)(=O)c2ccc(Cl)cc2)c2nc3ccccc3nc2n2ccnc12 | 79.3
Oc1oc(C(=C2N=c3ccccc3=N2)c2ccc(Cl)cc2)c(O)c1-c1ccc(Cl)cc1 | > 100
Cc1nc2c(N)ncnc2o1 | > 100
O=c1[nH]c(=O)n(C2CC(O)C(CO)O2)cc1OS(=O)(=O)C(F)(F)F (stereo not given) | > 100
CC[C@@H]1NC(C(=O)OC)Cc2c1[nH]c1ccccc21 (stereo not given in full) | > 100
CCOC(=O)Cc1csc(Nc2ccccc2[N+](=O)[O-])n1 | > 100

Tested on: LXFL 529 NSCLC
Assay: NCI anticancer screen, dose series, 48 h

Compound | TGI [µM] | GI50
O=Cc1cc2c(cc1-c1cc3c(cc1C=O)OCO3)OCO2 | > 100 | –
C/C(=N\NC(N)=O)c1sc(-c2nc(C)c(/C(C)=N/NC(N)=O)s2)nc1C | > 100 | –
O/N=C1\CCCCC1C(NO)c1ccccc1 (stereo not given) | > 100 | –
O=S(=O)(OI(OI(OS(=O)(=O)C(F)(F)F)c1ccccc1)c1ccccc1)C(F)(F)F | > 100 | –
COc1cc(OC)c(OC)cc1/C=N/NC(=O)N/N=C/c1cc(OC)c(OC)cc1OC | > 100 | –
FC(F)(F)c1ccc2nc(NCc3ccccc3)c(-c3ccccc3)nc2c1 | > 100 | –
Cc1cc2c(cc1C)[n+](=O)cc(C(=O)C/C(=N/NC(=S)NN)C(=O)Nc1cccc(C(F)(F)F)c1)n2[O-] | > 100 | –
COCOCCC#CCO | > 100 | –
COc1cc(C[P+](c2ccccc2)(c2ccccc2)c2ccccc2)cc(OC)c1OC | > 100 | –
CC(C)=CCC1=C(O)c2ccccc2C(=O)C1=O | > 100 | > 100 µM and 16.2 µM
CCCN(CCC)c1c([N+](=O)[O-])cc(C(=O)N(CC)CC)cc1[N+](=O)[O-] | 63.7 | –
COC(=N)c1csc(C2OC(CO)C(O)C2O)n1 (stereo not given) | > 100 | –
CCOc1ccc(OCC(=O)O)c2c1CCCC2=O | > 100 | –
Nc1c(S(=O)(=O)c2ccc(Cl)cc2)c2nc3ccccc3nc2n2ccnc12 | > 100 | –
CCOc1ccc(NC(=O)CC2SC(=Nc3ccc(C)cc3C)NC2=O)cc1 (stereo not given) | > 100 | –
Oc1oc(C(=C2N=c3ccccc3=N2)c2ccc(Cl)cc2)c(O)c1-c1ccc(Cl)cc1 | 12.2 | –
Cc1nc2c(N)ncnc2o1 | > 100 | –
O=c1[nH]c(=O)n(C2CC(O)C(CO)O2)cc1OS(=O)(=O)C(F)(F)F (stereo not given) | > 100 | –
CC[C@@H]1NC(C(=O)OC)Cc2c1[nH]c1ccccc21 (stereo not given in full) | > 100 | –
